# Where two headings read alike, the source gives them in different places.
# How the values were obtained:
# Type in all cases: cell-based
# B. cereus UC 3145 = assay: standard disc plate assay, zones of inhibition; details: Bacillus cereus, 12.5 mm paper discs; for zone of inhibition at 100 µg/mL: UC3145, read-out: Zones of Inhibition, 0.1 mg/ml; for zone of inhibition at 1000 µg/mL: UC3145, read-out: Zones of Inhibition, 1 mg/ml
# Procedure, shortened: (§1)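 Measured as inhibition zone diameter in a conventional in vitro disc plate assay employing 12.5 mm paper discs.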
# B. subtilis UC 564 = assay: standard disc plate assay, zones of inhibition; details: Bacillus subtilis, 12.5 mm paper discs; for zone of inhibition at 100 µg/mL: UC564, read-out: Zones of Inhibition, 0.1 mg/ml; for zone of inhibition at 1000 µg/mL: UC564, read-out: Zones of Inhibition, 1 mg/ml
# Procedure, shortened: as §1
# E. coli UC 51 = assay: standard disc plate assay, zones of inhibition; details: Escherichia coli, 12.5 mm paper discs; for zone of inhibition at 100 µg/mL: UC51, read-out: Zones of Inhibition, 0.1 mg/ml; for zone of inhibition at 1000 µg/mL: UC51, read-out: Zones of Inhibition, 1 mg/ml
# Procedure, shortened: as §1
# K. pneumoniae UC 57 = assay: standard disc plate assay, zones of inhibition; details: Klebsiella pneumoniae, 12.5 mm paper discs; for zone of inhibition at 100 µg/mL: UC57, read-out: Zones of Inhibition, 0.1 mg/ml; for zone of inhibition at 1000 µg/mL: UC57, read-out: Zones of Inhibition, 1 mg/ml
# Procedure, shortened: as §1
# P. vulgaris UC 93 [1] = assay: standard disc plate assay, zones of inhibition; details: Proteus vulgaris, 12.5 mm paper discs; for zone of inhibition at 100 µg/mL: UC93, read-out: Zones of Inhibition, 0.1 mg/ml; for zone of inhibition at 1000 µg/mL: UC93, read-out: Zones of Inhibition, 1 mg/ml
# Procedure, shortened: as §1
# Ps. aeruginosa UC 95 [2] = assay: standard disc plate assay, zones of inhibition; details: Pseudomonas aeruginosa, UC95, read-out: Zones of Inhibition, 1 mg/ml, 12.5 mm paper discs
# Procedure, shortened: as §1
# S. aureus UC 80 = assay: standard disc plate assay, zones of inhibition; details: Staphylococcus aureus, 12.5 mm paper discs; for zone of inhibition at 100 µg/mL: UC80, read-out: Zones of Inhibition, 0.1 mg/ml; for zone of inhibition at 1000 µg/mL: UC80, read-out: Zones of Inhibition, 1 mg/ml
# Procedure, shortened: as §1
# S. gallinarum UC 265 = assay: standard disc plate assay, zones of inhibition; details: for Zones of Inhibition: 12.5 mm paper discs, Table II
# Procedure, shortened: as §1
# S. lutea UC 130 = assay: standard disc plate assay, zones of inhibition
# Procedure, shortened: as §1
# S. schottmuelleri UC 126 [3] = assay: standard disc plate assay, zones of inhibition; details: 12.5 mm paper discs; for zone of inhibition at 100 µg/mL: 0.1 mg/ml; for zone of inhibition at 1000 µg/mL: 1 mg/ml
# Procedure, shortened: as §1
# E. coli UC 311 = assay: standard microplate test in BHI Agar; details: Escherichia coli, UC311, 20 h, read-out: Minimal Inhibitory Concentration
# Procedure, shortened: (§2)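 A standard microplate assay in BHI agar used compound at 1 mg./ml. and dilutions, with end points read at 20 h (37°).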
# E. coli UC 45 = assay: standard microplate test in BHI Agar; details: Escherichia coli, UC45, 37°, 20 hours, Table III, read-out: Minimum Inhibitory Concentration
# Procedure, shortened: as §2
# P. mirabilis UC 6671 = assay: standard microplate test in BHI Agar; details: Proteus mirabilis, UC6671, 20 h
# Procedure, shortened: (§3)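 End points are read after 20 hours of incubation at 37°. The medium is Brain Heart Infusion agar in a standard microplate format. Compounds are tested at 1 mg./ml. and at dilutions of that level.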
# P. morganii UC 3186 = assay: standard microplate test in BHI Agar; details: Morganella morganii, UC3186, 20 h
# Procedure, shortened: as §2
# P. vulgaris UC 93 [4] = assay: standard microplate test in BHI Agar; details: Proteus vulgaris, UC93, 20 h
# Procedure, shortened: as §2
# Ps. aeruginosa UC 95 [5] = assay: standard microplate test in BHI Agar; details: Pseudomonas aeruginosa, UC95, 20 h
# Procedure, shortened: as §2
# S. aureus UC 76 = assay: standard microplate test in BHI Agar; details: Staphylococcus aureus, UC76, 20 h
# Procedure, shortened: as §2
# S. faecalis UC 694 = assay: standard microplate test in BHI Agar; details: Enterococcus faecalis, UC694, 20 h
# Procedure, shortened: as §2
# S. flexneri UC 143 = assay: standard microplate test in BHI Agar; details: Shigella flexneri, UC143, 37°, 20 hours
# Procedure, shortened: as §2
# S. marcescens UC 131 = assay: standard microplate test in BHI Agar; details: Serratia marcescens, UC131, 20 h
# Procedure, shortened: as §2
# S. pneumoniae I UC 41 = assay: standard microplate test in BHI Agar; details: Streptococcus pneumoniae, UC41, 20 h
# Procedure, shortened: as §3
# S. pyogenes UC 152 = assay: standard microplate test in BHI Agar; details: Streptococcus pyogenes, UC152, 20 h
# Procedure, shortened: as §2
# S. schottmuelleri UC 126 [6] = assay: standard microplate test in BHI Agar; details: 37°, 20 hours
# Procedure, shortened: as §2
# [7] = Salmonella enterica, read-out: Zones of Inhibition
# [8] = read-out: Minimal Inhibitory Concentration
# [9] = read-out: Minimum Inhibitory Concentration
# [10] = Table III, read-out: Minimum Inhibitory Concentration
# [11] = Table IV, read-out: Minimal Inhibitory Concentration
compound,measurement,setting,value
NC[C@H]1O[C@H](O[C@H]2[C@H](O)[C@@H](O)[C@H](N)C[C@@H]2N)[C@H](N)[C@@H](O)[C@@H]1O [Neamine],zone of inhibition at 100 µg/mL,B. cereus UC 3145; Table I,15 mm
same,zone of inhibition at 100 µg/mL,B. cereus UC 3145; Table II,15 mm
same,zone of inhibition at 1000 µg/mL,B. cereus UC 3145; Table I,24 mm
same,zone of inhibition at 1000 µg/mL,B. cereus UC 3145; Table II,23 mm
same,zone of inhibition at 100 µg/mL,B. subtilis UC 564; Table I,30 mm
same,zone of inhibition at 100 µg/mL,B. subtilis UC 564; Table II,28 mm
same,zone of inhibition at 1000 µg/mL,B. subtilis UC 564; Table I,39 mm
same,zone of inhibition at 1000 µg/mL,B. subtilis UC 564; Table II,37 mm
same,zone of inhibition at 100 µg/mL,E. coli UC 51; Table I,19 mm
same,zone of inhibition at 100 µg/mL,E. coli UC 51; Table II,18 mm
same,zone of inhibition at 1000 µg/mL,E. coli UC 51; Table I,27 mm
same,zone of inhibition at 1000 µg/mL,E. coli UC 51; Table II,25 mm
same,zone of inhibition at 100 µg/mL,K. pneumoniae UC 57; Table I,27 mm
same,zone of inhibition at 100 µg/mL,K. pneumoniae UC 57; Table II,26 mm
same,zone of inhibition at 1000 µg/mL,K. pneumoniae UC 57; Table I,34 mm
same,zone of inhibition at 1000 µg/mL,K. pneumoniae UC 57; Table II,32 mm
same,zone of inhibition at 100 µg/mL,P. vulgaris UC 93 [1]; Table I,18 mm
same,zone of inhibition at 100 µg/mL,P. vulgaris UC 93 [1]; Table II,15 mm
same,zone of inhibition at 1000 µg/mL,P. vulgaris UC 93 [1]; Table I,27 mm
same,zone of inhibition at 1000 µg/mL,P. vulgaris UC 93 [1]; Table II,28 mm
same,zone of inhibition at 1000 µg/mL,Ps. aeruginosa UC 95 [2]; Table I,17 mm
same,zone of inhibition at 1000 µg/mL,Ps. aeruginosa UC 95 [2]; Table II,18 mm
same,zone of inhibition at 100 µg/mL,S. aureus UC 80; Table I,20 mm
same,zone of inhibition at 100 µg/mL,S. aureus UC 80; Table II,18 mm
same,zone of inhibition at 1000 µg/mL,S. aureus UC 80; Table I,29 mm
same,zone of inhibition at 1000 µg/mL,S. aureus UC 80; Table II,26 mm
same,Zones of Inhibition,S. gallinarum UC 265; 0.1 mg/ml,19 mm
same,Zones of Inhibition,S. gallinarum UC 265; 1 mg/ml,29 mm
same,zone of inhibition at 100 µg/mL,S. gallinarum UC 265; [7],19 mm
same,zone of inhibition at 1000 µg/mL,S. gallinarum UC 265; [7],29 mm
same,Zones of Inhibition,"S. lutea UC 130; 1 mg/ml, 12.5 mm paper discs, Table II",17 mm
same,zone of inhibition at 1000 µg/mL,"S. lutea UC 130; Micrococcus luteus, UC130, read-out: Zones of Inhibition",17 mm
same,zone of inhibition at 100 µg/mL,S. schottmuelleri UC 126 [3]; Table I,16 mm
same,zone of inhibition at 100 µg/mL,S. schottmuelleri UC 126 [3]; Table II,15 mm
same,zone of inhibition at 1000 µg/mL,S. schottmuelleri UC 126 [3]; Table I,24 mm
same,zone of inhibition at 1000 µg/mL,S. schottmuelleri UC 126 [3]; Table II,23 mm
same,MIC,E. coli UC 311,125 µg/mL
same,MIC,E. coli UC 45,62.5 µg/mL
same,MIC,P. mirabilis UC 6671; [8],250 µg/mL
same,MIC,P. mirabilis UC 6671; [9],62.5 µg/mL
same,MIC,P. morganii UC 3186; [8],31.2 µg/mL
same,MIC,P. morganii UC 3186; [9],62.5 µg/mL
same,MIC,P. vulgaris UC 93 [4]; [8],62.5 µg/mL
same,MIC,P. vulgaris UC 93 [4]; [9],62.5 µg/mL
same,MIC,Ps. aeruginosa UC 95 [5]; [8],> 500 µg/mL
same,MIC,Ps. aeruginosa UC 95 [5]; [9],> 500 µg/mL
same,MIC,S. aureus UC 76; [8],7.8 µg/mL
same,MIC,S. aureus UC 76; [9],3.9 µg/mL
same,MIC,S. faecalis UC 694; [8],> 500 µg/mL
same,MIC,S. faecalis UC 694; [9],> 500 µg/mL
same,MIC,S. flexneri UC 143; [10],62.5 µg/mL
same,MIC,S. flexneri UC 143; [11],125 µg/mL
same,MIC,S. marcescens UC 131; [8],250 µg/mL
same,MIC,S. marcescens UC 131; [9],250 µg/mL
same,MIC,S. pneumoniae I UC 41; [8],62.5 µg/mL
same,MIC,S. pneumoniae I UC 41; [9],62.5 µg/mL
same,MIC,S. pyogenes UC 152; [8],7.8 µg/mL
same,MIC,S. pyogenes UC 152; [9],7.8 µg/mL
same,MIC,S. schottmuelleri UC 126 [6]; [10],31.2 µg/mL
same,MIC,S. schottmuelleri UC 126 [6]; [11],15.6 µg/mL

# Reference: US4169197A, “6-Deoxyneamines aminoglycoside compounds” (The Upjohn Company, priority 1978, dated 1979)
